{"source": "patent US6514692B2", "about": "“Method for treatment of immunodeficiency virus infection” (priority 1996, dated 2003)", "key": {"SK1 isolate of HIV-1": {"tested_on": "SK1 isolate of HIV-1", "source_text": "(§1) ME180 cells, a cervical epithelial cell line, were obtained from the American Type Culture Collection. These cells were thawed from liquid nitrogen and grown in RPMI 1640 medium supplemented with 10t fetal bovine serum, glutamine and antibiotics. The cells were adherent and were trypsinized (0.5% trypsin in HBSS) to remove them from the flask for passaging and use in assays. For use in the microtiter transmission inhibition assay, ME180 cells were trypsinized, washed and seeded in 96-well flat bottom microtiter plates (COSTAR) at a density of 5×10^3 cells per well. The cells were incubated at 37° C. for 24 hours prior to the tart of the assay. H9 cells chronically infected with he SK1 isolate of HIV-1 were treated with 200 μg/ml mitomycin C for 60 minutes at 37° C. After treatment the cells were washed three times with tissue culture medium. The chronically infected lymphocytes were added to each well at a density of 2×10^4 cells per well. The concentration of mitomycin C used in the treatment of the lymphocytes was chosen to allow lymphocyte survival for the period of time required to transmit virus to the uninfected ME180 cells, but to die prior to the time of assay so as not to contribute to the p24 signal used as the endpoint (see below). In the transmission assay the lytic peptides D4E1 and D2A21, with and without 150 μg/ml pig mucin, were added prior to the addition of chronically infected cells or were mixed with the chronically infected cells prior to their addition to the monolayer of ME180 cells. Mucin was included because it is an abundant constituent of the normal vaginal secretions of a human being, thus any chemotherapeutic agent targeting HIV should be active in its presence if it is to have clinical value. […] The lymphocytes and peptide were co-cultured with the ME180 cells for 6 hours and then removed by washing the ME180 monolayer four times with PBS. The plate was then incubated at 37° C. for six days. Medium was removed and changed every 48 hours during the incubation stage. No further peptide was added after the initial dose. At six days post-co-cultivation, the supernatant was removed from the wells and evaluated for the quantity of p24 antigen by ELISA. The ELISA was performed according to the manufacturer's recommendations. The amount of virus production in wells treated with various concentrations of the peptides was evaluated with appropriate cell and virus controls. Data are reported as a percent of virus control at each drug concentration. Linear regression analysis was used to calculate the […] and IC95 concentrations of the transmission inhibitor. […] TI represents the toxicity index, which is the ratio of the TC50/IC50, and is an indication of the relative concentrations window that exists between efficacy and toxicity."}, "[1]": {"assay": "toxicity (XTT) in transmission inhibition assay", "settings": "human, ME180 cells", "source_text": "as §1"}, "ME180 cells": {"tested_on": "ME180 cells", "assay": "toxicity (XTT) in transmission inhibition assay", "settings": "for TOXICITY VALUES (XTT), single samples: samples 1-3; for TC50 (concentration at which 50% of cells are eliminated): interpolation from % CC", "source_text": "as §1"}, "[2]": {"settings": "0.32 μg/ml, with 150 μg/ml pig mucin"}, "[3]": {"settings": "1 μg/ml, with 150 μg/ml pig mucin"}, "[4]": {"settings": "3.2 μg/ml, with 150 μg/ml pig mucin"}, "[5]": {"settings": "10 μg/ml, with 150 μg/ml pig mucin"}, "[6]": {"settings": "32 μg/ml, with 150 μg/ml pig mucin"}, "[7]": {"settings": "100 μg/ml, with 150 μg/ml pig mucin"}}, "note": "Values joined by “and” are separate entries in the source; they are usually repeats but may differ in a detail not shown here. Identical values can stand only once. Like-named read-outs stand apart in the source and are kept apart here. Where no end group is shown, it is not given here."}
{"sequence": "FAKKFAKKFKKFAKKFAKFAFAF [D2A21]", "values": [{"measurement": "% VC (p24, percent of virus control)", "setting": "SK1 isolate of HIV-1; 0.32 μg/ml, no mucin", "value": 81.8, "unit": "%"}, {"measurement": "% VC (p24, percent of virus control)", "setting": "SK1 isolate of HIV-1; [2]", "value": 33.7, "unit": "%"}, {"measurement": "% VC (p24, percent of virus control)", "setting": "SK1 isolate of HIV-1; 1 μg/ml, no mucin", "value": 67.3, "unit": "%"}, {"measurement": "% VC (p24, percent of virus control)", "setting": "SK1 isolate of HIV-1; [3]", "value": 27.7, "unit": "%"}, {"measurement": "% VC (p24, percent of virus control)", "setting": "SK1 isolate of HIV-1; 3.2 μg/ml, no mucin", "value": 40.6, "unit": "%"}, {"measurement": "% VC (p24, percent of virus control)", "setting": "SK1 isolate of HIV-1; [4]", "value": 18.8, "unit": "%"}, {"measurement": "% VC (p24, percent of virus control)", "setting": "SK1 isolate of HIV-1; 10 μg/ml, no mucin", "value": 27.4, "unit": "%"}, {"measurement": "% VC (p24, percent of virus control)", "setting": "SK1 isolate of HIV-1; [5]", "value": 10.1, "unit": "%"}, {"measurement": "% VC (p24, percent of virus control)", "setting": "SK1 isolate of HIV-1; 32 μg/ml, no mucin", "value": 2.2, "unit": "%"}, {"measurement": "% VC (p24, percent of virus control)", "setting": "SK1 isolate of HIV-1; [6]", "value": 0.0, "unit": "%"}, {"measurement": "% VC (p24, percent of virus control)", "setting": "SK1 isolate of HIV-1; 100 μg/ml, no mucin", "value": 0.0, "unit": "%"}, {"measurement": "TI (toxicity index, TC50/IC50)", "setting": "SK1 isolate of HIV-1; no mucin", "value": "TI = 15"}, {"measurement": "TI (toxicity index, TC50/IC50)", "setting": "SK1 isolate of HIV-1; with 150 μg/ml pig mucin", "value": "TI = 139"}, {"measurement": "viability at 6 h, 0.32 µg/mL", "setting": "[1]", "value": 97.6, "unit": "%"}, {"measurement": "viability at 6 h, 1 µg/mL", "setting": "[1]", "value": 100, "unit": "%"}, {"measurement": "viability at 6 h, 3.2 µg/mL", "setting": "[1]", "value": 97.6, "unit": "%"}, {"measurement": "viability at 6 h, 10 µg/mL", "setting": "[1]", "value": 95.9, "unit": "%"}, {"measurement": "viability at 6 h, 32 µg/mL", "setting": "[1]", "value": 61, "unit": "%"}, {"measurement": "viability at 6 h, 100 µg/mL", "setting": "[1]", "value": 16.4, "unit": "%"}, {"measurement": "TOXICITY VALUES (XTT), MEAN", "setting": "ME180 cells; 0.32 μg/ml, no mucin", "value": 0.515, "unit": "O.D. @ 450/650 nm"}, {"measurement": "TOXICITY VALUES (XTT), single samples", "setting": "ME180 cells; 0.32 μg/ml, no mucin", "value": "0.541 O.D. @ 450/650 nm and 0.497 O.D. @ 450/650 nm and 0.506 O.D. @ 450/650 nm"}, {"measurement": "% CC (XTT, percent of cell control)", "setting": "ME180 cells; [2]", "value": 97.6, "unit": "%"}, {"measurement": "TOXICITY VALUES (XTT), MEAN", "setting": "ME180 cells; [2]", "value": 0.515, "unit": "O.D. @ 450/650 nm"}, {"measurement": "TOXICITY VALUES (XTT), single samples", "setting": "ME180 cells; [2]", "value": "0.541 O.D. @ 450/650 nm and 0.497 O.D. @ 450/650 nm and 0.506 O.D. @ 450/650 nm"}, {"measurement": "TOXICITY VALUES (XTT), MEAN", "setting": "ME180 cells; 1 μg/ml, no mucin", "value": 0.528, "unit": "O.D. @ 450/650 nm"}, {"measurement": "TOXICITY VALUES (XTT), single samples", "setting": "ME180 cells; 1 μg/ml, no mucin", "value": "0.550 O.D. @ 450/650 nm and 0.514 O.D. @ 450/650 nm and 0.520 O.D. @ 450/650 nm"}, {"measurement": "% CC (XTT, percent of cell control)", "setting": "ME180 cells; [3]", "value": 100.1, "unit": "%"}, {"measurement": "TOXICITY VALUES (XTT), MEAN", "setting": "ME180 cells; [3]", "value": 0.528, "unit": "O.D. @ 450/650 nm"}, {"measurement": "TOXICITY VALUES (XTT), single samples", "setting": "ME180 cells; [3]", "value": "0.550 O.D. @ 450/650 nm and 0.514 O.D. @ 450/650 nm and 0.520 O.D. @ 450/650 nm"}, {"measurement": "TOXICITY VALUES (XTT), MEAN", "setting": "ME180 cells; 3.2 μg/ml, no mucin", "value": 0.515, "unit": "O.D. @ 450/650 nm"}, {"measurement": "TOXICITY VALUES (XTT), single samples", "setting": "ME180 cells; 3.2 μg/ml, no mucin", "value": "0.525 O.D. @ 450/650 nm and 0.513 O.D. @ 450/650 nm and 0.506 O.D. @ 450/650 nm"}, {"measurement": "% CC (XTT, percent of cell control)", "setting": "ME180 cells; [4]", "value": 97.6, "unit": "%"}, {"measurement": "TOXICITY VALUES (XTT), MEAN", "setting": "ME180 cells; [4]", "value": 0.515, "unit": "O.D. @ 450/650 nm"}, {"measurement": "TOXICITY VALUES (XTT), single samples", "setting": "ME180 cells; [4]", "value": "0.525 O.D. @ 450/650 nm and 0.513 O.D. @ 450/650 nm and 0.506 O.D. @ 450/650 nm"}, {"measurement": "TOXICITY VALUES (XTT), MEAN", "setting": "ME180 cells; 10 μg/ml, no mucin", "value": 0.506, "unit": "O.D. @ 450/650 nm"}, {"measurement": "TOXICITY VALUES (XTT), single samples", "setting": "ME180 cells; 10 μg/ml, no mucin", "value": "0.518 O.D. @ 450/650 nm and 0.506 O.D. @ 450/650 nm and 0.491 O.D. @ 450/650 nm"}, {"measurement": "% CC (XTT, percent of cell control)", "setting": "ME180 cells; [5]", "value": 95.9, "unit": "%"}, {"measurement": "TOXICITY VALUES (XTT), MEAN", "setting": "ME180 cells; [5]", "value": 0.506, "unit": "O.D. @ 450/650 nm"}, {"measurement": "TOXICITY VALUES (XTT), single samples", "setting": "ME180 cells; [5]", "value": "0.518 O.D. @ 450/650 nm and 0.508 O.D. @ 450/650 nm and 0.491 O.D. @ 450/650 nm"}, {"measurement": "TOXICITY VALUES (XTT), MEAN", "setting": "ME180 cells; 32 μg/ml, no mucin", "value": 0.322, "unit": "O.D. @ 450/650 nm"}, {"measurement": "TOXICITY VALUES (XTT), single samples", "setting": "ME180 cells; 32 μg/ml, no mucin", "value": "0.342 O.D. @ 450/650 nm and 0.315 O.D. @ 450/650 nm and 0.308 O.D. @ 450/650 nm"}, {"measurement": "% CC (XTT, percent of cell control)", "setting": "ME180 cells; [6]", "value": 61.04, "unit": "%"}, {"measurement": "TOXICITY VALUES (XTT), MEAN", "setting": "ME180 cells; [6]", "value": 0.322, "unit": "O.D. @ 450/650 nm"}, {"measurement": "TOXICITY VALUES (XTT), single samples", "setting": "ME180 cells; [6]", "value": "0.342 O.D. @ 450/650 nm and 0.315 O.D. @ 450/650 nm and 0.308 O.D. @ 450/650 nm"}, {"measurement": "TOXICITY VALUES (XTT), MEAN", "setting": "ME180 cells; 100 μg/ml, no mucin", "value": 0.087, "unit": "O.D. @ 450/650 nm"}, {"measurement": "TOXICITY VALUES (XTT), single samples", "setting": "ME180 cells; 100 μg/ml, no mucin", "value": "0.061 O.D. @ 450/650 nm and 0.083 O.D. @ 450/650 nm and 0.096 O.D. @ 450/650 nm"}, {"measurement": "% CC (XTT, percent of cell control)", "setting": "ME180 cells; [7]", "value": 16.4, "unit": "%"}, {"measurement": "TOXICITY VALUES (XTT), MEAN", "setting": "ME180 cells; [7]", "value": 0.087, "unit": "O.D. @ 450/650 nm"}, {"measurement": "TOXICITY VALUES (XTT), single samples", "setting": "ME180 cells; [7]", "value": "0.081 O.D. @ 450/650 nm and 0.083 O.D. @ 450/650 nm and 0.096 O.D. @ 450/650 nm"}, {"measurement": "TC50 (concentration at which 50% of cells are eliminated)", "setting": "ME180 cells; no mucin", "value": "TC50 = 39 μg/ml"}, {"measurement": "TC50 (concentration at which 50% of cells are eliminated)", "setting": "ME180 cells; with 150 μg/ml pig mucin", "value": "TC50 39 μg/ml"}]}
